The values that follow come from patent US20250275993A1, “GLYCOSYLATION INHIBITORS AS THERAPEUTICS FOR STROKE” (The Regents of the University of California, priority 2022, published 2025).

One data set has as its system A673. Nature of the data set: A673 proliferation assay. The format is cell-based. Conditions: ManN. The protocol:
(§1) Proliferation assays with fibroblasts were done in low-glucose DMEM containing 1% FBS, with or without 10 ng/ml bFGF, or 100 ng/ml human EGF and the assay was ended at day 3. ARPE-19 cells were gently lifted with 0.025% trypsin and plated in RtEGM media (Clonetics) containing 2% FBS, L-glutamine, human bFGF and GA-1000. Once cells were attached to plates, serum-free RtEGM media was used to maintain the cultures. For proliferation assays, 1500 human RPE cells were plated into 96-well plates in low-glucose DMEM containing 1% FBS. A673, U87MG, Calu6 and AML12 cells were grown until confluent and were then harvested and re-suspended in appropriate assay media. For proliferation assays, cells were plated at the density of 1000-2000 cells/well in low-glucose DMEM containing 5% FBS or otherwise stated. Bovine pituitary cells (pituitary folliculostellate cells) were isolated as previously described. For proliferation assays with human epidermal keratinocytes, human DMVECs and human dermal fibroblast cells, 1000 cells/well were plated in low-glucose DMEM containing 1% FBS with or without various growth factors. The assay was ended at day 3 for bovine pituitary cells and at day 4 for all the other cell types. […] Four days later, tumor cell growth was measured by the MTS assay (Promega, Madison, WI), a colorimetric assay that measures metabolic activity of viable cells. […]

A further data set relates to Calu6. The data set can be described thus: Calu6 proliferation assay. Conditions: ManN. The format is cell-based. The method, then: as §1
Data set [1] in a line: ManN stability in wound fluid from S. aureus infected mice. The format is in vitro ADME, mouse. Particulars: up to 24 hours at 37° C. The protocol:
To test ManN stability in wound fluid collected from mice with skin infection as described below, 1.5 μl of 5% ManN solution was added to each 200 μl wound fluid which was first diluted 1:1 (v/v) with PBS. At each time point, samples were taken from 37° C. incubator and stored at −80° C. Plasma proteins were precipitated by adding ice cold acetonitrile to plasma: acetonitrile 1:3 (v/v) ratio. Samples were kept over ice for 1 hr and then centrifuged at 12000 g for 10 min at 7° C. to form a pellet. Supernatants were transferred to other tubed, dried down on a Speed Vac and then reconstituted in UltraPure distilled water and filtered through pre-washed Nanosep 3K Omega filters (Pall Corporation). The filtrate was dried down on Speed Vac. The dry samples were dissolved in 100 μl of water and 2 μl plasma or wound fluid sample was subjected to HPLC analysis. Neutral and amino sugars were separated on a Dionex CarboPac PAI column 4 mm×250 mm with 4 mm×50 mm guard column. An isocratic gradient of 19 mM sodium hydroxide with 0.95 mM sodium acetate was used at a flow rate of 1 ml/min with 20 min run. Data was collected using the Dionex ICS-3000 HPLC system with pulsed amperometric detector using standard Quad waveform. ManN was identified and quantified by comparison with monosaccharide standard using Thermo Scientific Chromeleon software. No ManN samples served as negative controls. […]

Data set [2] concerns VEGF, VEGFR2 and GLUT1 & 4. The data set can be described thus: Gene expression analysis by real-time Q PCR in BCECs. The format is cell-based, bovine. Particulars: various concentrations of ManN; 4 hours (gene) or 24 hours (protein). The method, then: RNA was prepared using the RNeasy Mini Kit (Qiagen). Fifty ng of total RNA per reaction was used for the real-time PCR (Taqman) analysis. Reactions were set up in MicroAmp Fast Optical 96-well reaction plate, seal with MicroAmp optical Adhesion film and run on ViiA7 Real time PCR system (Applied Biosystems) and the absolute quantification with standard curve was used with Sequence Detection System (SDS) software. The expression level of each gene was further quantified relative to the housekeeping gene RPL19 in the same sample. Taqman primers and probe mixes were obtained from Thermo Fisher Scientific. Bovine VEGF-A (Bt03213282), bovine RPL19 (Bt03229687) and bovine specific VEGFR2 (Bt03258877), GLUT1 (Bt03215313) and GLUT4 (Bt03215316).

The subject of a further data set is brain infarction. The data set can be described thus: Middle cerebral artery occlusion (MCAO) stroke model. The format is in vivo, mouse.
The test system of the next data set is U87MG. The data set can be described thus: U87MG proliferation assay. The format is cell-based. Particulars: ManN. The protocol: as §1
For another data set, the system named is ARPE-19 RPE cells. Nature of the data set: Human RPE proliferation assay. The format is cell-based. The protocol: as §1
The next data set relates to NIH3T3 fibroblasts. Nature of the data set: NIH3T3 proliferation assay. Particulars: alone or in combination with growth factors. The format is cell-based, mouse. The protocol:
as §1

For another data set, the system named is human keratinocytes. Nature of the data set: Human keratinocyte proliferation assay. The format is cell-based. The method, then:
as §1

The subject of the next data set is α-glucosidase. The data set can be described thus: α-glucosidase activity assay. The format is biochemical, Saccharomyces cerevisiae. Conditions: up to 2 mM. The protocol:
a-mannosidase activity was measured using substrate p-nitrophenyl α-mannopyranoside (1 mM). Enzyme from Jack Bean (M7257) (final concentration of 0.077 U) was incubated at 37° C. in a final volume of 50 μl of 50 mM potassium phosphate buffer, pH 7.5. α-glucosidase was assayed with substrate p-nitrophenyl a-glucoside (7 mM). Enzyme from Saccharomyces cerevisiae-type 1 (Sigma, G5003) (final concentration of 0.1 U) was incubated at 37° C. in a final volume of 50 μl of PBS, pH 7.5. β-Glucosidase was assayed with substrate 4-nitrophenyl β-D-glucopyranoside (Roche). Enzyme from almond (Sigma, G0395) (final concentration of 0.002 U) was incubated at 37° C. in a final volume of 50 μl of PBS, pH 7.5 […]. The incubation was stopped by addition of an equal volume of acid-based stop solution (R&D systems, 895032). Enzymatic activity was measured at 405 nm. α-glucosidase from Saccharomyces cerevisiae type I (G5003) with p-nitrophenyl α-D-glucopyranoside (Sigma, N1377) as the substrate.

Where [3] appears, read: alone or in combination with growth factors.

With `N[C@H](C=O)[C@@H](O)[C@H](O)[C@H](O)CO` [ManN, 2-Amino-2-deoxy-D-mannose], the “growth of A673” value in the data set with A673 was “did not promote growth”. The “growth of Calu6” value in the data set with Calu6 is “did not promote growth”. For the same molecule, in data set [1], the “loss of free ManN in wound fluid” value is on record as “No significant loss”. The “transcription of VEGF, VEGFR2, GLUT1 & 4 and total VEGFR2 protein expression” value in data set [2] was “neither transcription of VEGF, VEGFR2 and GLUT] & 4 nor total VEGFR2 protein expression was significantly changed”. In addition, the “histopathological alterations (H&E), Day 4” value in the data set with brain infarction (40 mg ManN Day -1, 1, 3) is given as “ameliorates histopathological alterations”. The “vascular density (CD31) in cerebral cortex affected by infarct, Day 6” value in the data set on brain infarction (40 mg ManN Day -1, 1, 3, 5, p<0.001) is reported as “significantly increased vascular density”. Further, the “infarction area, Day 4 MRI, first and second experiment” value in the data set on brain infarction (40 mg ManN oral gavage Day -1 and every 48 hours, 4 animals per group) is recorded as “markedly smaller infarction area”. In the data set with brain infarction (4 days post-acute ischemic event, FIG. 12D), the “overall infarction area, combined analysis” value is “statistically significant effect of ManN treatment in reducing overall infarction area”. The “TTC staining of coronal slices at Day 4” value in the data set with brain infarction (FIG. 13C) is listed as “lack of large regions of white staining”. The “CNS infarct volume at Day 4 (MRI), additional animals” value with brain infarction (p<0.001 vs vehicle, FIG. 13B) is given as “significantly reduced CNS infarct volume”. Besides, the “infarct area on Day 2 and Day 4 (MRI images)” value in the data set with brain infarction (vs vehicle (H2O), FIG. 13A) is recorded as “Reduction in infarct area is noticeable”. Further, the “growth of U87MG” value in the data set with U87MG was “did not promote growth”. Also, the “sensitivity of human RPE cells to ManN toxicity” value with ARPE-19 RPE cells (5 mM level of ManN) was “least sensitive ones”. In the data set with ARPE-19 RPE cells (setting [3]), the “proliferation of human RPEs” value is recorded as “no increases in proliferation”. Besides, the “proliferation of NIH3T3 cells” value in the data set on NIH3T3 fibroblasts is “no increases in proliferation”. Moreover, in the data set on human keratinocytes (5 mM level of ManN), the “sensitivity of human keratinocytes to ManN toxicity” value was “least sensitive ones”. Also, in the data set with human keratinocytes (setting [3]), the “proliferation of human keratinocytes” value is listed as “no increases in proliferation”. Further, the “effect on α-glucosidase” value in the data set on α-glucosidase is given as “No effect”.
